According to ChEMBL document CHEMBL1140682, “A novel series of potent cytotoxic agents targeting G2/M phase of the cell cycle and demonstrating cell killing by apoptosis in human breast cancer cells” (Bioorg Med Chem Lett, 2007):
The source made the active and inactive calls. The rule behind the calls is not given here.

Assays:
MDA-MB-468 [1] = assay: Inhibition of human ER negative MDA-MB-468 cells by MTT assay; assay type: functional, cell-based
MDA-MB-468 [2] = assay: Cell cycle arrest in MDA-MB-468 cells by accumulation at G2/M phase at 1.0 to 2.0 uM by flow cytometry; assay type: functional, cell-based; details: Homo sapiens
MDA-MB-468 [3] = assay: Cell cycle arrest in MDA-MB-468 cells by accumulation at G0/G1 phase at 0.5 uM after 24 hrs; assay type: functional, Homo sapiens
MDA-MB-468 [4] = assay: Cell cycle arrest in MDA-MB-468 cells by accumulation at S phase at 0.5 uM after 24 hrs; assay type: functional, Homo sapiens
MDA-MB-468 [5] = assay: Cell cycle arrest in MDA-MB-468 cells by accumulation at G2/M phase at 0.5 uM after 24 hrs; assay type: functional, Homo sapiens
MDA-MB-468 [6] = assay: Cell cycle arrest in MDA-MB-468 cells by accumulation at G0/G1 phase at 4.0 uM after 24 hrs; assay type: functional, Homo sapiens
MDA-MB-468 [7] = assay: Cell cycle arrest in MDA-MB-468 cells by accumulation at S phase at 4.0 uM after 24 hrs; assay type: functional, Homo sapiens
MDA-MB-468 [8] = assay: Cell cycle arrest in MDA-MB-468 cells by accumulation at G2/M phase at 4.0 uM after 24 hrs; assay type: functional, Homo sapiens
MDA-MB-468 [9] = assay: Cell cycle arrest in MDA-MB-468 cells by accumulation at G0/G1 phase at 8.0 uM after 24 hrs; assay type: functional, Homo sapiens
MDA-MB-468 [10] = assay: Cell cycle arrest in MDA-MB-468 cells by accumulation at S phase at 8.0 uM after 24 hrs; assay type: functional, Homo sapiens
MDA-MB-468 [11] = assay: Cell cycle arrest in MDA-MB-468 cells by accumulation at G2/M phase at 8.0 uM after 24 hrs; assay type: functional, Homo sapiens
MDA-MB-468 [12] = assay: Induction of apoptosis in MDA-MB-468 cells assessed as DNA fragmentation after 24 hrs by TUNEL assay; assay type: functional, cell-based; details: Homo sapiens
MDA-MB-468 [13] = assay: Induction of apoptosis in MDA-MB-468 cells assessed as blebbing at 8.0 uM after 24 hrs by electron microscopy; assay type: functional, cell-based; details: Homo sapiens
MDA-MB-468 [14] = assay: Induction of apoptosis in MDA-MB-468 cells assessed as apoptotic bodies at 8.0 uM after 24 hrs by electron microscopy; assay type: functional, cell-based; details: Homo sapiens
MDA-MB-468 [15] = assay: Induction of apoptosis in MDA-MB-468 cells assessed as vacuolization at 8.0 uM after 24 hrs by electron microscopy; assay type: functional, cell-based; details: Homo sapiens
MDA-MB-468 [16] = assay: Induction of apoptosis in MDA-MB-468 cells assessed as nuclear condensation at 8.0 uM after 24 hrs by electron microscopy; assay type: functional, cell-based; details: Homo sapiens
MDA-MB-468 [17] = assay: Induction of apoptosis in MDA-MB-468 cells assessed as p53 levels at 8.0 uM; assay type: functional, cell-based; details: Homo sapiens
MDA-MB-468 [18] = assay: Induction of apoptosis in MDA-MB-468 cells assessed as alteration in p53 localization; assay type: functional, cell-based; details: Homo sapiens

IC50 (MDA-MB-468 [1]): 1600 nM
SMILES: c1ccc(Sc2nc(Sc3ccccn3)nc(Sc3ccccn3)n2)nc1
Activity (MDA-MB-468 [2]): Active
Activity (MDA-MB-468 [3]): 49%
Activity (MDA-MB-468 [4]): 29.2%
Activity (MDA-MB-468 [5]): 21.8%
Activity (MDA-MB-468 [6]): 33.6%
Activity (MDA-MB-468 [7]): 25.9%
Activity (MDA-MB-468 [8]): 40.5%
Activity (MDA-MB-468 [9]): 36.3%
Activity (MDA-MB-468 [10]): 20.8%
Activity (MDA-MB-468 [11]): 42.9%
Activity (MDA-MB-468 [12]): Dose-dependent effect
Activity (MDA-MB-468 [13]): Active
Activity (MDA-MB-468 [14]): Active
Activity (MDA-MB-468 [15]): Active
Activity (MDA-MB-468 [16]): Active
Activity (MDA-MB-468 [17]): inactive
Activity (MDA-MB-468 [18]): Dose-dependent effect
